Test results published in ChEMBL document CHEMBL2424622, “Development of amino-pyrimidine inhibitors of c-Jun N-terminal kinase (JNK): kinase profiling guided optimization of a 1,2,3-benzotriazole lead” (Bioorg Med Chem Lett, 2013).

Tests used:
[1] = tested on: T1, Receptor-type tyrosine-protein kinase FLT3 (Homo sapiens), P36888 [D835H]; assay: Competitive binding affinity to FLT3 D835H mutant (unknown origin) at 10 uM in presence of ATP relative to control
T1 sequence (whole entry): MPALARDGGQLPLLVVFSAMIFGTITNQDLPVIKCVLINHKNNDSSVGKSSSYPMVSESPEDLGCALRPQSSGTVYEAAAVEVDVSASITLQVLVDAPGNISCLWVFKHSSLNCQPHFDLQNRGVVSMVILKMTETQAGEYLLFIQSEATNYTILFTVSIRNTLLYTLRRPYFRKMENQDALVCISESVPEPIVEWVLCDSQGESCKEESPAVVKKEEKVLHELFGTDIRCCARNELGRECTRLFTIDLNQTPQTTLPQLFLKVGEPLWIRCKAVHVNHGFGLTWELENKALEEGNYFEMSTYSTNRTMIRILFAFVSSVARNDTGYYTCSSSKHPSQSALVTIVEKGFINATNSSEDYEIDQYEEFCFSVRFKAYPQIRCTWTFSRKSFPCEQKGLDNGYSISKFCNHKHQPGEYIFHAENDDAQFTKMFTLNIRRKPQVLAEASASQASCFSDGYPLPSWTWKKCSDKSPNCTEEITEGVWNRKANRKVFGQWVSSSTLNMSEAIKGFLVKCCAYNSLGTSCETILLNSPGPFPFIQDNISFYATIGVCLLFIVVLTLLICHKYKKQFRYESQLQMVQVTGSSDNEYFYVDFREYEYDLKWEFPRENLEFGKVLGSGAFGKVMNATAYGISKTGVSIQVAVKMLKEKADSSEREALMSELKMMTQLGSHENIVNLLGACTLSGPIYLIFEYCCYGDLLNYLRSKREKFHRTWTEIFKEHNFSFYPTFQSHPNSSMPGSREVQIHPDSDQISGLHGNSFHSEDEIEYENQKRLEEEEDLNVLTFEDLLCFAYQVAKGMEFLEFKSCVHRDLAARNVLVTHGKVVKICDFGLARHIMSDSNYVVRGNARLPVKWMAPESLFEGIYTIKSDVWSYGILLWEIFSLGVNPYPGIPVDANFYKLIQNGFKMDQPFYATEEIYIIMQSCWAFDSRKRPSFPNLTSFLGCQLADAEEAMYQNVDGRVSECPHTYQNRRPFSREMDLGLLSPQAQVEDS

[2] = target: T2, Serine/threonine-protein kinase RIO3 (Homo sapiens) (UniProt O14730); assay: Competitive binding affinity to RIOK3 (unknown origin) at 10 uM in presence of ATP relative to control
T2 sequence (whole entry): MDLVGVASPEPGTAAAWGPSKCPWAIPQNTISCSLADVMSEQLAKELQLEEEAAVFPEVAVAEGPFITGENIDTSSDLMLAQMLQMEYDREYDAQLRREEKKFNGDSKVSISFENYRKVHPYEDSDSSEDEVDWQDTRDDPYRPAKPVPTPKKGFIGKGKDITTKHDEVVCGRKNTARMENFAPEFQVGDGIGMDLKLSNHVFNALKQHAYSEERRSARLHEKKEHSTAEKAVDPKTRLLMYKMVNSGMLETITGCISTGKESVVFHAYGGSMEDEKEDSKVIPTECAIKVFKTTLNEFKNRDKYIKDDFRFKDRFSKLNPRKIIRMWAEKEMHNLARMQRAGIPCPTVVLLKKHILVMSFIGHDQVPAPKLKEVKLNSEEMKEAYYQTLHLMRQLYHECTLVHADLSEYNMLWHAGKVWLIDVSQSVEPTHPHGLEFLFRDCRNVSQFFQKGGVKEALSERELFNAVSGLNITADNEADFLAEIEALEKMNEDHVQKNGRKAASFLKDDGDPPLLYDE

[3] = target: T3, cGMP-dependent protein kinase 1 (Homo sapiens) (UniProt Q13976); assay: Competitive binding affinity to PRKG1 (unknown origin) at 10 uM in presence of ATP relative to control
T3 sequence (whole entry): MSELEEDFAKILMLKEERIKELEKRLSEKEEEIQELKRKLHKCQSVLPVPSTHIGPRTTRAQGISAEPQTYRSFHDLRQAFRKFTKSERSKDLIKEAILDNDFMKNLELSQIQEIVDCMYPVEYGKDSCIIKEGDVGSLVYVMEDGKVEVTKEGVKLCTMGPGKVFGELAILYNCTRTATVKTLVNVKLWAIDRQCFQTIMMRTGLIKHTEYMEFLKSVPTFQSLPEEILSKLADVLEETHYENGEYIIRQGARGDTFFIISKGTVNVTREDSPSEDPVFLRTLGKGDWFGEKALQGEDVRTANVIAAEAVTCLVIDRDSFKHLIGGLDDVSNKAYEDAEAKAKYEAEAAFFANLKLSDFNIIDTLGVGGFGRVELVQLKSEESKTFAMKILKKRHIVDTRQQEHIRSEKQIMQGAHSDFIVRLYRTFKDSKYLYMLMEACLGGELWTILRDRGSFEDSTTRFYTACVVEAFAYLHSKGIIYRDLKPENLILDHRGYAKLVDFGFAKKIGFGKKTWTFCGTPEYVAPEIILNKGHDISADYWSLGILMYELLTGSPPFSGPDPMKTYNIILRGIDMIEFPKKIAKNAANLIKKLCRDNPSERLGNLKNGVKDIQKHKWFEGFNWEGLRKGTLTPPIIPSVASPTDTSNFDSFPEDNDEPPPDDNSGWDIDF

[4] = target: Phosphatidylinositol 4,5-bisphosphate 3-kinase catalytic subunit alpha isoform (Homo sapiens) (UniProt P42336); assay: Competitive binding affinity to PIK3CA (unknown origin) at 10 uM in presence of ATP relative to control
Sequence of Phosphatidylinositol 4,5-bisphosphate 3-kinase catalytic subunit alpha isoform (Homo sapiens) (P42336 whole entry, canonical isoform): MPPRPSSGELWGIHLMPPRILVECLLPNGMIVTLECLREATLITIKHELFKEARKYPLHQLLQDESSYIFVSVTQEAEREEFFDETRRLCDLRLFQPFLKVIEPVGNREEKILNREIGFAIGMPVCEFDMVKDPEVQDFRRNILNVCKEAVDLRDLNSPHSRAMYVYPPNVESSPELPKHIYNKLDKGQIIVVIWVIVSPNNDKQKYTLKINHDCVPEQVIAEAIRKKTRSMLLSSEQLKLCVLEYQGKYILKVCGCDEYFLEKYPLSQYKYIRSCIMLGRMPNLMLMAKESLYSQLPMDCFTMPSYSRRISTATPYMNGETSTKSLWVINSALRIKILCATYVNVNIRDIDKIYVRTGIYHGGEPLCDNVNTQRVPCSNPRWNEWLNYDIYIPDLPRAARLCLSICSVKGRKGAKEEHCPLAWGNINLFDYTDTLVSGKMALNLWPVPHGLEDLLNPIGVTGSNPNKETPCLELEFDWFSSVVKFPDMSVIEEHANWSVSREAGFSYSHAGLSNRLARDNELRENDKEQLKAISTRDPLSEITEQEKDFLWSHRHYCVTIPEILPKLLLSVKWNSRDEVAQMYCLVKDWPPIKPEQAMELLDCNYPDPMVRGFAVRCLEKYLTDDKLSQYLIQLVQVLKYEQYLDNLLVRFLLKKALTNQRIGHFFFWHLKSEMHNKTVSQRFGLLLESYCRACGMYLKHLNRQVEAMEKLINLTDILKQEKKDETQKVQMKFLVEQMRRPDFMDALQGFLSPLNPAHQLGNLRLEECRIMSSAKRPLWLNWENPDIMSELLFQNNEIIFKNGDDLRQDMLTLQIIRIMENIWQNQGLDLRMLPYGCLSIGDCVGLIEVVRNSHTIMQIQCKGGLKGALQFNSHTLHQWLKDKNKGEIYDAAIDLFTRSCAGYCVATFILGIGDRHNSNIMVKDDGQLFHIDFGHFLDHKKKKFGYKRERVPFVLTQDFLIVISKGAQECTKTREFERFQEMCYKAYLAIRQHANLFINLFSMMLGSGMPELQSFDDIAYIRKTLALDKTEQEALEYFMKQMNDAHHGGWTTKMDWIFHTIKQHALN

[5] = target: Cyclin-dependent kinase 18 (Homo sapiens) (UniProt Q07002); assay: Competitive binding affinity to PCTK3 (unknown origin) at 10 uM in presence of ATP relative to control
Sequence of Cyclin-dependent kinase 18 (Homo sapiens) (Q07002 whole entry): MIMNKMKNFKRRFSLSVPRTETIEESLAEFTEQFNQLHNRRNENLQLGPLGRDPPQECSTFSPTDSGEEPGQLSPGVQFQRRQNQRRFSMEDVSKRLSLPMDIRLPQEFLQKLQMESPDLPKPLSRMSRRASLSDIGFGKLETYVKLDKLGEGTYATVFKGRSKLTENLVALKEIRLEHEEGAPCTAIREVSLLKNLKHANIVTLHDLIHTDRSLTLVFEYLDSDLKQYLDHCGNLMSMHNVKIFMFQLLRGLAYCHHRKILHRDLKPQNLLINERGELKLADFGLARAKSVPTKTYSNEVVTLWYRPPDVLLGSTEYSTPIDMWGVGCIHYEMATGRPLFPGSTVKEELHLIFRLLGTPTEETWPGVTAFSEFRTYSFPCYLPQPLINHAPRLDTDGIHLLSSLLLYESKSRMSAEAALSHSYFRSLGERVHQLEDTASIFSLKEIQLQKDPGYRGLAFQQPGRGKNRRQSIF

## O[C@H]1CC[C@H](Nc2nccc(-n3nnc4ccccc43)n2)CC1
[1]
  inhibition: 99%
[2]
  inhibition: < 50%
[3]
  inhibition: < 50%
[4]
  inhibition: 84%
[5]
  inhibition: < 50%

## O[C@H]1CC[C@H](Nc2nccc(-n3ncc4ccccc43)n2)CC1
[1]
  inhibition: 100%
[2]
  inhibition: < 50%
[3]
  inhibition: < 50%
[4]
  inhibition: 78%
[5]
  inhibition: < 50%

## O[C@H]1CC[C@H](Nc2nccc(-c3n[nH]c4ccccc34)n2)CC1
[1]
  inhibition: 100%
[3]
  inhibition: < 50%

## O[C@H]1CC[C@H](Nc2nccc(-n3ccc4ccccc43)n2)CC1
[1]
  inhibition: < 50%
[2]
  inhibition: < 50%
[3]
  inhibition: < 50%
[4]
  inhibition: < 50%
[5]
  inhibition: < 50%
